From US9173898B2, “Methods of treating giardiasis” (THE UNITED STATES OF AMERICA, as represented by the …, priority 2010, dated 2015)
Converted amounts (≈) assume the structure as drawn. Like-named read-outs stand apart in the source and are kept apart here.

Assays:
Giardia WB = assay: Giardia viability (ATP content) assay in 1536-well format; format: cell-based, Giardia lamblia; details: for IC50: concentration at which 50% of DMSO control ATP levels are detected, 48 hours, 1536-well; for Giardia WB Efficacy / Emax: percent reduction in ATP levels compared with 38.3 mM Mnz at maximal compound concentration; for Emax: 48 h, read-out: Giardia WB Efficacy; for EC50: 1536-well (FIG. 2a), read-out: Calculated EC50
Experimental: (§1) For the viability assay in 1536-well format, 2 μL media was dispensed per well into 1536-well white solid-bottom plates using a Multidrop Combi dispenser (Thermo Scientific). Subsequently, 23 nL/well compound solutions or DMSO controls were dispensed to the assay plates containing media via a pintool workstation (Kalypsys, San Diego). Trophozoites were chilled on ice to detach from glass tubes, and unless otherwise noted, were diluted to 250,000 trophozoites/mL with ice cold media. The trophozoite suspension was kept on ice and dispensed as 4 μL/well with the Multidrop Combi dispenser. Attachment of trophozoites to dispensing apparatus was avoided with continuous dispensing and icing of the trophozoite suspension. The plates were covered with plastic low-evaporation lids, individually sealed in Type A Bio-Bags and incubated at 37° C. for 48 hours. Following incubation, 4 μL/well of ATPLite reagent was dispensed with the Multidrop Combi dispenser. The assay plates were briefly centrifuged at 1000 RPM and luminescence signal was detected on a ViewLux plate reader (PerkinElmer) after 20 min incubation at room temperature. Signal-to-basal (S/B) ratio, Z′ factor and coefficient of variation (CV) were calculated from 32 wells with 0.38% DMSO (total signal) and 32 well with 38.3 μM Mnz (basal signal).
Assay miniaturization in 1,536-well plate format was undertaken to increase throughput and facilitate screening of large compound libraries. The volume of trophozoites suspension was reduced to 6 μL/well and the ATP detection reagent was reduced to 4 μL/well in the 1536-well assay plates. […] The 100 trophozoites/well density was selected for further experiments to reduce the preparation work of Giardia cultures. Following these conditions, a DMSO test plate was used to assess the statistical parameters of the assay in the 1,536-well plate format.
Using the above established conditions in 1536-well format, each compound of the invention was tested at 5 concentration points, ranging from 61 nM-38.3 μM in a 1:5 dilution ratio (Inglese, J., D. S. Auld, A. Jadhav, R. L. Johnson, A. Simeonov, A. Yasgar, W. Zheng, and C. P. Austin. 2006. Quantitative high-throughput screening: a titration-based approach that efficiently identifies biological activities in large chemical libraries. Proc Natl Acad Sci USA 103:11473-8).

CHO cells [1] = assay: CHO cell cytotoxicity assay in 1536-well format (ATP content counter-screen); format: cell-based, Chinese hamster; details: concentration at which 50% of DMSO control ATP levels are detected, 48 hours
Experimental: For the viability assay in 1536-well format, 2 μL media was dispensed per well into 1536-well white solid-bottom plates using Multidrop Combi dispenser. Subsequently, 23 nL/well compound solutions or DMSO controls were dispensed to the assay plates via a pintool workstation. The Chinese hamster ovary (CHO) cells were grown in T225 flasks to 70% confluence under a standard cell culture condition (ATCC), detached with 0.25% Trypsin/EDTA, and seeded at 250 cells/well in 4 μL media (Dulbecco's Modified Eagle Medium, 10% fetal bovine serum, 1× penicillin/streptomycin). The plates were incubated at 37° C. with 5% CO2 and 95% humidity for 48 hours. Subsequently, ATP content was measured following the addition of 4 μL/well of ATPLite reagent and a 20 min incubation on a ViewLux plate reader.
Data from the CHO cell counter-screen underwent the same initial analysis, with the exception that raw luminescence counts were normalized relative to DMSO only wells (0% activity) and 38.3 μM camptothecin treated wells (100% activity).
CHO cells, commonly used in high throughput compound screening, were selected to determine the cytotoxicity of the compounds towards a mammalian cell line.

G. lamblia GS isolate = assay: ATP content assay against G. lamblia GS isolate; format: cell-based, Giardia lamblia
Experimental: as §1
As a further confirmatory step, some compounds that were commercially available were purchased as powder samples and tested against the G. lamblia GS isolate using both the ATP content and enumeration assays (Table 3).

[2] = tested on: Giardia lamblia GS isolate; assay: Trophozoite enumeration assay; format: cell-based; details: G. lamblia GS isolate, 48 hrs, cell counting in hemocytometer
Experimental: Giardia lamblia GS isolate was plated into sterile 96-well black clear-bottom assay plates at 10,000 cells/well density and 120 μL/well volume in culture media. Compounds tested were prepared as 50 mM DMSO solutions in a 12 point 1:3 titration series in DMSO, with exceptions being carbadox, Bortezomib and BTO-1, which were used at 10 mM top concentration due to solubility limitations. Compound titration series were added to duplicate assay wells as 0.5 μL/well and the assay plates were incubated anaerobically in Type A Bio-Bag (BD Diagnostics) for 48 hrs at 37° C. Cell density was visually scored in each well and the 6 wells surrounding the visually determined IC50 concentrations were quantitated by cell counting. For enumeration, trophozoites were detached on ice for 30 min and resuspended via pipetting. 75 μL of culture was removed from each well, mixed with 65 μL of 0.4% Trypan Blue and 10 μL of 30% bleach (final concentration of 2% bleach) to immobilize trophozoites. Trophozoites were then counted in a hemocytometer.

CHO cells [3] = assay: CHO cell cytotoxicity assay in 1536-well format (ATP content counter-screen); format: cell-based, Chinese hamster; details: for CHO Efficacy: percent reduction in ATP levels compared with 38.3 mM camptothecin at maximal compound concentration; for Emax: Cricetulus griseus, CHO, 48 h, percent reduction in ATP levels compared with 38.3 µM camptothecin at maximal compound concentration, read-out: CHO Efficacy
[4] = tested on: Giardia lamblia GS isolate; assay: Minimum Lethal Concentration (MLC) determination; format: cell-based; details: 3 days with compound, then 3 days regrowth without compound, tube without any live organisms
Experimental: Giardia lamblia GS isolate was used throughout the Minimal Lethal Concentration (MLC) experiments. Organisms were grown and maintained in TYI-S-33 medium supplemented with bile and antibiotics (Keister, 1983). Cidal activity was determined in 96-well culture plates (Corning Incorporated) followed by Giardia trophozoites regrowth in 8 ml tubes (Fisher Scientific). Dry compounds were dissolved in DMSO (Sigma) at stock concentration of 10 mM and then added to the growth media to ensure final DMSO concentration of no more than 0.5%. 100 μl of the compound solutions were placed in the wells by serial dilutions. 10 μl of Giardia trophozoites containing 10000 organisms were then added. Serial dilutions of metronidazole served as the positive control and the DMSO-containing medium served as the negative control. Plates were incubated under anaerobic conditions in sealed bags (Becton Dickinson and Company) at 37° C. for 3 days and surveyed visually under microscope to check survival, mobility and attachment of trophozoites. The plate was chilled on ice for 30 min and the entire contents of 4 wells in the growth/death transition were transferred into the 8 ml tubes containing growth media only (without the compound). After 3 days of incubation at 37° C., tubes were checked under microscope for any surviving trophozoites. MLC was attributed to the tube without any live organisms. See, e.g., Keister, D. B. 1983. Axenic culture of Giardia lamblia in TYI-S-33 medium supplemented with bile. Trans. Soc. Trop. Med. Hyg. 77:487-488.

[5] = tested on: G. lamblia WB trophozoite; assay: Giardia viability (ATP content) assay in 96-well format; format: cell-based, Giardia lamblia
Experimental: Giardia trophozoites were plated at a density of 2500 cells/well in 120 μL media in sterile 96-well black clear-bottom assay plates. Mnz was serially diluted from 100 mM stock solution 1:4 in DMSO and then 0.5 μL/well of Mnz titrations or DMSO control were transferred in duplicates to the assay wells using a multichannel pipette. The assay plates were covered with plastic low-evaporation lids and individually sealed with anaerobic generators (Type A Bio-Bag, BD Diagnostics) to create anaerobic growth environment. The sealed Bio-Bags were incubated at 37° C. for indicated periods. Following incubation, 80 μL/well of the ATPLite reagent (PerkinElmer) was added to the assay plates for one-step lysis and ATP level detection. The plates were centrifuged briefly (1000 RPM, 30 seconds) and incubated at room temperature for 20 min. The luminescent signals of assay plates were measured on a ViewLux plate reader (PerkinElmer). Signal-to-basal (S/B) ratios and Z′ factors were calculated from 8 wells containing 0.42% DMSO (total signal) and 8 wells containing 41.7 μM Mnz (basal signal).
A commercially available ATP detection kit to measure the viability of G. lamblia after compound treatment. […] The DMSO tolerance of trophozoites was assessed in this assay as DMSO is used to dissolve the compounds in the library. […]

[6] = G. lamblia GS isolate, purchased powder samples
[7] = G. lamblia GS isolate, purchased powder samples, read-out: ATP Content IC50
[8] = Giardia duodenalis, G. lamblia GS isolate, purchased powder samples, read-out: ATP Content IC50
[9] = Giardia duodenalis, Table 2, screen, read-out: Giardia GS IC50

| Molecule | IC50 (G. lamblia GS isolate; [8]) [µM] | IC50 ([2]; Giardia duodenalis) [µM] | IC50 (G. lamblia GS isolate; [9]) [µM] | IC50 (Giardia WB) [µM] | Giardia WB Efficacy (Giardia WB) [%] | IC50 (CHO cells [1]) [µM] | ATP Content Efficacy (G. lamblia GS isolate; [6]) [%] | IC50 (G. lamblia GS isolate; [7]) [µM] | IC50 [2] [µM] | CHO Efficacy (CHO cells [3]) [%] | MBC ([4]; Giardia duodenalis, 72 h) [µM] | Emax (Giardia WB; Giardia) [%] | IC50 (Giardia WB; Giardia) [µM] | IC50 (CHO cells [1]; Cricetulus griseus, CHO) [µM] | Emax (CHO cells [3]) [%] | other results |
| --- | --- | --- | --- | --- | --- | --- | --- | --- | --- | --- | --- | --- | --- | --- | --- | --- |
| N#Cc1cc([N+](=O)[O-])c2sc(C(N)=O)[n+]([O-])c2c1 [BTO-1] |  |  |  | 1.73 | 72.3 | 68.8 | 99.1 | 2 | 9.3 | 32.2 |  |  |  |  |  |  |
| CC(C)C[C@H](NC(=O)[C@H](Cc1ccccc1)NC(=O)c1cnccn1)B(O)O [Bortezomib] | 0.06 | 0.13 |  |  |  |  | 98.5 |  |  |  | 0.51 (≈ 0.196 µg/mL) |  |  |  |  |  |
| COC(=O)N/N=C/c1c[n+]([O-])c2ccccc2[n+]1[O-] [Carbadox] | 0.24 | 0.29 | 2.83 |  |  |  | 99.4 |  |  |  | 4.6 (≈ 1.21 µg/mL) | 86.6 | 5.46 | > 100 | 6.3 |  |
| CO[C@@H]1[C@H](OC(=O)/C=C/C=C/C=C/C=C/C(=O)O)CC[C@]2(CO2)[C@H]1[C@@]1(C)O[C@@H]1CC=C(C)C [Fumagillin] | 0.002 | 0.003 | 0.002 |  |  |  | 98.9 |  |  |  | 0.257 (≈ 0.118 µg/mL) | 83.4 | 0.01 | > 100 | -1.9 |  |
| O=[N+]([O-])c1ccc([As](=O)(O)O)cc1 [Nitarsone] |  |  |  | 0.43 | 97.0 | > 100 | 99.6 | 0.9 | 1.2 | −13.5 |  |  |  |  |  | IC50 (G. lamblia GS isolate; Table 2, screen, read-out: Giardia GS IC50): 1.26 µM; MBC [4]: 2.6 µM |
| hydroxocobalamin acetate [Hydroxocobalam in Acetate] |  |  |  | 13.7 | 92.2 | > 100 | 98.4 | 78.3 | 54.2 | 16.1 |  |  |  |  |  | MBC [4]: >208 µM |

Second part, led by results:

| IC50 (G. lamblia GS isolate; [8]) [µM] | IC50 ([2]; Giardia duodenalis) [µM] | IC50 (G. lamblia GS isolate; [9]) [µM] | Molecule | IC50 (Giardia WB) [µM] | Giardia WB Efficacy (Giardia WB) [%] | IC50 (CHO cells [1]) [µM] | ATP Content Efficacy (G. lamblia GS isolate; [6]) [%] | IC50 (G. lamblia GS isolate; [7]) [µM] | IC50 [2] [µM] | CHO Efficacy (CHO cells [3]) [%] | MBC ([4]; Giardia duodenalis, 72 h) [µM] | Emax (Giardia WB; Giardia) [%] | IC50 (Giardia WB; Giardia) [µM] | IC50 (CHO cells [1]; Cricetulus griseus, CHO) [µM] | Emax (CHO cells [3]) [%] | other results |
| --- | --- | --- | --- | --- | --- | --- | --- | --- | --- | --- | --- | --- | --- | --- | --- | --- |
| 0.15 | 0.07 | 0.1 | Nc1ncn([C@H]2C[C@H](O)[C@@H](CO)O2)c(=O)n1 [Decitabine, 5-Aza-2′-deoxycytidine] |  |  |  | 95.1 |  |  |  | 2.6 (≈ 0.593 µg/mL) | 81.2 | 0.97 | 24.4 | -52.2 |  |
| 12.7 | 32.9 |  | O=C(Nc1ccccc1)c1cc([N+](=O)[O-])ccc1Cl [GW9662] |  |  |  | 99.2 |  |  |  | 208 (≈ 57.5 µg/mL) | 86.4 | 6.87 | > 100 | 8.5 |  |
| 1.6 | 2.2 |  | Cc1ncc([N+](=O)[O-])n1CCO [Metronidazole] |  |  |  | 99.7 |  |  |  | 7.7 (≈ 1.32 µg/mL) |  |  |  |  | ATP content relative to DMSO control values ([5]; 41.7 μM Mnz treatment, all time points tested (FIG. 1a)): < 5%; IC50 ([5]; Giardia duodenalis, 96-well format, 48 hr (FIG. 1c), read-out: IC50 of inhibition of the ATP content signal): 2.1 µM; EC50 (Giardia WB; Giardia, 100 cells/well Giardia density): 2.9 µM; EC50 (Giardia WB; Giardia, 200 cells/well Giardia density): 2.9 µM; EC50 (Giardia WB; Giardia, 300 cells/well Giardia density): 2.1 µM |
